{"source": "paper PMC3672070", "about": "“Novel birch pollen specific immunotherapy formulation based on contiguous overlapping peptides” (Clinical and Translational Allergy, 2013)", "molecules": {"B1": {"name": "T5: Bet v 1-derived synthetic contiguous overlapping peptide, aa 65-160 (peptide, UniProt P15494 65-160, looked up, fragment)", "chain": "FKYVKDRVDEVDHTNFKYNYSVIEGGPIGDTLEKISNEIKIVATPDGGSILKISNKYHTKGDHEVKAEQVKASKEMGETLLRAVESYLLAHSDAYN"}, "B2": {"name": "rBet v 1: recombinant major birch pollen allergen Bet v 1 (BIOMAY, Vienna, Austria) (protein, UniProt P15494 2-160, looked up)", "Major pollen allergen Bet v …": "GVFNYETETTSVIPAARLFKAFILDGDNLFPKVAPQAISSVENIEGNGGPGTIKKISFPEGFPFKYVKDRVDEVDHTNFKYNYSVIEGGPIGDTLEKISNEIKIVATPDGGSILKISNKYHTKGDHEVKAEQVKASKEMGETLLRAVESYLLAHSDAYN"}}, "key": {"[1]": {"tested_on": "rBet v 1 specific IgE in sera from birch pollen allergic patients", "test": "Competition ELISA for rBet v 1 specific human IgE", "conditions": "read-out: EC50, inhibition of serum IgE binding to rBet v 1; sera from 6 birch pollen allergic patients (1:5 to 1:10) incubated 1 h with tenfold dilutions of competitor starting at 10^-5 M; rBet v 1 coated plates; '>' = no competitive activity up to this concentration", "method": "Successively and with washings between steps, plates were incubated 1 h at RT with biotinylated mouse anti-huIgE (Pharmingen, 5 μg/ml, 1 h at RT), Streptavidin-HRP or -alkaline phosphatase (BD, 1:1000 or 1:8000, respectively, 30 min at RT) and TMB (BD OptEIA, ) or 4-NPP. OD were read at 450 nm, 630 nm and 405 nm, respectively. Inhibition of IgE binding to Betv 1 was calculated as: (OD with competitor minus ODmin)/(OD without competitor minus ODmin) × 100, where ODmin was determined in wells without serum."}, "[2]": {"tested_on": "volunteers allergic to birch pollen", "test": "Skin prick testing of birch pollen sensitive volunteers (AN002 phase I clinical trial)", "conditions": "20 volunteers; for skin prick test positive reactions: even at a 10 μM concentration", "procedure": "(§1) The AN002 phase I clinical trial was a single center, open and controlled study conducted at the Centre Hospitalier Universitaire Vaudois (CHUV) in Lausanne. Volunteers (18–45 years) with at least one season history of birch pollen rhinoconjunctivitis or asthma were recruited outside of the birch pollen season. […] The primary objective of the study was to determine the reactogenicity of selected COPs by skin prick tests.\n(§2) Individual T1 to T5 COPs, AllerT and T4-T5 mix were evaluated in vivo by skin prick tests following EAACI guidelines [31]."}, "[3]": {"tested_on": "volunteers allergic to birch pollen", "conditions": "human, in vivo", "procedure": "as §1, §2"}, "[4]": {"tested_on": "RBL-2H3 cells", "test": "Degranulation assay (beta-hexosaminidase release) on rat basophil line RBL-2H3 loaded with sera from rBet v 1-sensitized mice", "assay_type": "cell-based", "method": "Degranulation assay was performed as previously described. RBL-2H3 cells were plated in 96-well tissue culture plates (4×10^4 cells/well) overnight. Passive sensitization of RBL-2H3 cells was carried out with sera from rBet v 1-sensitized mice at a final dilution of 1:30 for 2 h. Unbound antibodies were removed by washing the cell layer twice in Hanks’ balanced salt solution (Sigma-Aldrich, St-Louis, MO, USA). […] The reaction was stopped by addition of 100 μl glycine buffer (0.2M glycine, 0.2M NaCl, pH 10.7) and optical densities (OD) measured at 405 nm."}, "[5]": {"tested_on": "RBL703/21 cells (RBL transfected with human FcϵRI)", "test": "Degranulation assay (beta-hexosaminidase release) on humanised basophil cell line RBL703/21", "assay_type": "cell-based, rat", "conditions": "RBL703/21 incubated overnight with sera from ten patients (ImmunoCAP classes 4 to 6); 1 h 37°C", "method": "The assay was adapted from Ladics et al. and Blanc et al.. RBL cells transfected with human FcϵRI (RBL703/21, kind gift of Dr L. Vogel, Paul-Ehrlich Institute, Germany) were plated at 10^5 cells/well in medium (MEM containing glutamine and penicillin/streptomycin) and incubated overnight with sera from subjects with class 4, 5 and 6 IgE levels to birch pollen extract as determined by ImmunoCAP (Phadia, Uppsala, Sweden). Human serum was diluted 1/2 with 4M glucose and incubated for 45 min at 56°C, centrifuged and diluted 1/5 with MEM medium before addition to RBL703/21 cells. […] Supernatants (30 μl) were incubated in duplicates with 50 μl of substrate solution (1.3 mg/ml p-nitrophenyl-b-D-2-acetamido-2-deoxyglucopyranozide from Sigma in 0.1 M citrate pH 4.5) for 1 hour at 37°C. Reaction was stopped by the addition of 100 μl of 0.2 M glycin (pH 10.7). OD was measured at 405 nm (reference filter at 620 nm). β-hexosaminidase release was calculated using the following formula: (OD sample-ODbuffer) / (ODanti-IgE-ODbuffer) × 100."}, "[6]": {"conditions": "dilution 1:1 of the concentration given (COPs and mixes 10 μM, rBet v 1 1 μM, birch 100’000 SQ), EAACI guidelines"}, "[7]": {"conditions": "dilution 1:1 of the concentration given in the row (10 μM)"}, "[8]": {"conditions": "dilution 1:100 of the concentration given"}}, "note": "Like-named read-outs stand apart in the source and are kept apart here. Ends that are not written are not given here.", "data": [{"molecule": "GVFNYETETTSVIPAARLFKAFILDGDNLFPKVAPQAISSVENIEGNGGPGTIKKISFPEGFPFKYVKDRVDEVDHTNFKYNYS [T4]", "values": [{"measurement": "EC50", "setting": "[1]", "value": "> 10", "unit": "µM"}, {"measurement": "Positive skin reactions (≥3 mm wheal and flare present), number of volunteers", "setting": "[2]; [6]", "value": 0}, {"measurement": "0 mm <Skin reaction < 3 mm (sub-threshold), number of volunteers", "setting": "[2]; [7]", "value": 0}, {"measurement": "0 mm <Skin reaction < 3 mm (sub-threshold), number of volunteers", "setting": "[2]; dilution 1:10", "value": 0}, {"measurement": "Positive skin reactions (≥3 mm wheal and flare present), number of volunteers", "setting": "[2]; dilution 1:10", "value": 0}, {"measurement": "0 mm <Skin reaction < 3 mm (sub-threshold), number of volunteers", "setting": "[2]; [8]", "value": 1}, {"measurement": "Positive skin reactions (≥3 mm wheal and flare present), number of volunteers", "setting": "[2]; [8]", "value": 0}]}, {"molecule": "GVFNYETETTSVIPAARLFKAFILDGDNLFPKVAPQAISSVENIEGNGG [T1]", "values": [{"measurement": "EC50", "setting": "[1]", "value": "> 10", "unit": "µM"}, {"measurement": "Positive skin reactions (≥3 mm wheal and flare present), number of volunteers", "setting": "[2]; [6]", "value": 0}, {"measurement": "0 mm <Skin reaction < 3 mm (sub-threshold), number of volunteers", "setting": "[2]; dilution 1:10", "value": 0}, {"measurement": "Positive skin reactions (≥3 mm wheal and flare present), number of volunteers", "setting": "[2]; dilution 1:10", "value": 0}, {"measurement": "0 mm <Skin reaction < 3 mm (sub-threshold), number of volunteers", "setting": "[2]; [8]", "value": 0}, {"measurement": "Positive skin reactions (≥3 mm wheal and flare present), number of volunteers", "setting": "[2]; [8]", "value": 0}, {"measurement": "skin prick test positive reactions", "setting": "[2]", "value": "unable to elicit skin prick test positive reactions"}]}, {"molecule": "VATPDGGSILKISNKYHTKGDHEVKAEQVKASKEMGETLLRAVESYLLAHSDAYN [T3]", "values": [{"measurement": "EC50", "setting": "[1]", "value": "> 10", "unit": "µM"}, {"measurement": "Positive skin reactions (≥3 mm wheal and flare present), number of volunteers", "setting": "[3]", "value": 0}]}, {"molecule": "NGGPGTIKKISFPEGFPFKYVKDRVDEVDHTNFKYNYSVIEGGPIGDTLEKISNEIKIVATPDGGSILKIS [T2]", "values": [{"measurement": "EC50", "setting": "[1]", "value": "> 10", "unit": "µM"}, {"measurement": "Positive skin reactions (≥3 mm wheal and flare present), number of volunteers", "setting": "[2]; [6]", "value": 0}, {"measurement": "0 mm <Skin reaction < 3 mm (sub-threshold), number of volunteers", "setting": "[2]; [7]", "value": 0}, {"measurement": "0 mm <Skin reaction < 3 mm (sub-threshold), number of volunteers", "setting": "[2]; dilution 1:10", "value": 0}, {"measurement": "Positive skin reactions (≥3 mm wheal and flare present), number of volunteers", "setting": "[2]; dilution 1:10", "value": 0}, {"measurement": "0 mm <Skin reaction < 3 mm (sub-threshold), number of volunteers", "setting": "[2]; [8]", "value": 0}, {"measurement": "Positive skin reactions (≥3 mm wheal and flare present), number of volunteers", "setting": "[2]; [8]", "value": 0}, {"measurement": "skin prick test positive reactions", "setting": "[2]", "value": "unable to elicit skin prick test positive reactions"}]}, {"molecule": "B1", "values": [{"measurement": "EC50", "setting": "[1]", "value": "> 10", "unit": "µM"}, {"measurement": "Positive skin reactions (≥3 mm wheal and flare present), number of volunteers", "setting": "[2]; [6]", "value": 0}, {"measurement": "0 mm <Skin reaction < 3 mm (sub-threshold), number of volunteers", "setting": "[2]; dilution 1:10", "value": 0}, {"measurement": "Positive skin reactions (≥3 mm wheal and flare present), number of volunteers", "setting": "[2]; dilution 1:10", "value": 0}, {"measurement": "0 mm <Skin reaction < 3 mm (sub-threshold), number of volunteers", "setting": "[2]; [8]", "value": 0}, {"measurement": "Positive skin reactions (≥3 mm wheal and flare present), number of volunteers", "setting": "[2]; [8]", "value": 0}]}, {"molecule": "B2", "values": [{"measurement": "optimal rBet v 1 concentration for hexosaminidase release", "setting": "[4]; RBL-2H3 loaded with sera from rBet v 1-sensitized mice, serial concentrations", "value": 0.57, "unit": "nM"}, {"measurement": "hexosaminidase release", "setting": "[4]; RBL-2H3 primed with sera from Bet v 1-sensitized mice (1:30), stimulation 1 h 37°C, COPs and AllerT at 5.7 nM (n=10) and 57 nM (n=3), OD 405 nm", "value": "accumulated significantly"}, {"measurement": "dose at which maximal degranulation response was reached", "setting": "[5]", "value": "10^-9 M"}, {"measurement": "positive skin prick reactions, share of patients", "setting": "[2]; allergen concentration lowered by 10 fold (birch 10’000 SQ, rBet v 1 0.1 μM)", "value": 80, "unit": "%"}, {"measurement": "Positive skin reactions (≥3 mm wheal and flare present), number of volunteers", "setting": "[2]; dilution 1:10", "value": 16}, {"measurement": "Positive skin reactions (≥3 mm wheal and flare present), number of volunteers", "setting": "[2]; [8]", "value": 2}]}]}
